Like-named read-outs stand apart in the source and are kept apart here.
Legend:
[1] = test system: L-1210 leukemia; experiment: Survival effect, L-1210 leukemia; assay type: in vivo, mice (CDF1, female); conditions: for ILS % over controls / Mean survival days: 24 hours after implantation
Description: 3. Antitumor activity on L-1210 leukemia
10^5 cells of L-1210 leukemia were intraperitoneally implanted in CDF1 mice (female, 8-10 weeks old). […]
MCT was administered as control for Compound A.
Mean survival time after the implantation was determined, and the increase in life-span (ILS) over controls was calculated.

[2] = test system: L-1210 leukemia; experiment: Duration of antitumor activity, L-1210 leukemia; assay type: in vivo, mice (CDF1, female)
Description: (2) Duration of antitumor activity
10^5 cells of L-1210 leukemia were intraperitoneally implanted in the mice.
Survival days after the implantation were counted.

[3] = test system: Sarcoma-180 (S-180); experiment: Effect on growth of solid tumor by oral administration, S-180; assay type: in vivo, mice (ICR/JCL, female); conditions: for Tumor growth (weight : T/C %): 3 hours after implantation, 20 days after; for minimal effective dose: Mus musculus, 480 h, read-out: minimum effective dose
Description: (3) Effect on growth of solid tumor by oral administration
1.8 × 10^6 cells of S-180 were implanted subcutaneously in ICR/JCL mice (female, 6-8 weeks old).
Each of the drugs was orally administered as a solution of safflower oil 3 hours after the implantation.
Safflower oil was administered as control for each of the drugs.
Twenty days after, the tumor weight was measured, and the ratio of the tumor weight to that of the control group (T/C %) was calculated.

[4] = test system: Sarcoma-180 (S-180); experiment: Survival effect, S-180; assay type: in vivo, mice (ICR/JCL, female); conditions: for ILS (%) over control / Mean survival days: 24 hours after implantation
Description: 10^6 cells of S-180 were intraperitoneally implanted in ICR/JCL mouse (female, 6-8 weeks old).
Compound A was administered as a solution of soybean oil at 24 hours after the implantation.
Soybean oil was administered as control for Compound A.
Survival days after implantation was measured. The increase in life-span over control groups (ILS = T/C % - 100) was calculated.

[5] = test system: Sarcoma-180 (S-180); experiment: Inhibitory effect on the growth of S-180 ascites form (TPCV); assay type: in vivo, mice (ICR/JCL, female); conditions: for Tumor growth (TPCV : T/C %): i.p., 24 hours after implantation, day 10; for ED50: Mus musculus, ip, 240 h; for ED50 / safety index (LD50 /ED50): S-180 ascites form, from Tables 1 and 2
Description: 2. Antitumor activity against Sarcoma-180 (S-180)
(1) Inhibitory effect on the growth of S-180 ascites form (Intraperitoneal administration)
10^6 cells of S-180 were intraperitoneally implanted in ICR/JCL mice (female, 8-10 weeks old).
Compound A was administered as a solution of soybean oil and 5-FU was administered as saline solution, at 24 hours after the implantation.
Soybean oil was administered as control for the Compound A. Saline solution was administered as control for 5-FU.
Ten days after the implantation of the tumor cells, the total packed cell volumes (TPCV) were measured. The measurement of TPCV was carried out in accordance with Hoshi, A. et al., Chemical & Pharmaceutical Bulletion 17 (4), 848-850 (1969). The results are shown in Table 2, wherein T/C % means the ratio of the TPCV of the test groups to that of the control group.

[6] = Acute toxicity, LD50 after three weeks observation; assay type: in vivo, mice (CDF1, female); conditions: mouse, in vivo, CDF1 mice, three weeks observation
Text: (§1) LD50 (mg/Kg) after three weeks observation in CDF1 mice (female, 8-10 weeks old)

[7] = test system: CDF1 mice; experiment: Acute toxicity, LD50 after three weeks observation; assay type: in vivo, female); conditions: from Table 1, compared with FT-207 and 5-FU
Text: as §1

[8] = clinical background; cited from earlier work
[9] = ip, intraperitoneal administration
[10] = sc, subcutaneous administration

O=c1[nH]c(=O)n(C2CCCO2)cc1F (stereo not drawn) [FT-207, reference compound]
ILS % over controls ([1]; 50 mg/Kg i.p. in saline): 0%
Mean survival days ([1]; 50 mg/Kg i.p. in saline): 7.0 days
ILS % over controls ([1]; 200 mg/Kg i.p. in saline): 1%
Mean survival days ([1]; 200 mg/Kg i.p. in saline): 7.1 days
effectiveness ([1]; dose of about 1/4 LD50): it cannot be confirmed that FT-207 is effective
Mean survival days ([2]; 200 mg/Kg i.p. in saline, 1 day before tumor implantation): 8.8 days
Mean survival days ([2]; 200 mg/Kg i.p. in saline, 2 days before tumor implantation): 9.0 days
Mean survival days ([2]; 200 mg/Kg i.p. in saline, 4 days before tumor implantation): 9.0 days
Tumor growth (weight : T/C %) ([3]; 25 mg/Kg oral): 148%
Tumor growth (weight : T/C %) ([3]; 50 mg/Kg oral): 269%
Tumor growth (weight : T/C %) ([3]; 100 mg/Kg oral): 58%
Tumor growth (weight : T/C %) ([3]; 200 mg/Kg oral): 43%
Tumor growth (weight : T/C %) ([3]; 400 mg/Kg oral): 34%
minimal effective dose ([3]; oral, S-180 solid tumor, from Table 4): ~100 mg/kg

Cc1c(C)c2c(c(C)c1OC(=O)n1cc(F)c(=O)[nH]c1=O)CCC(C)(CCCC(C)CCCC(C)CCCC(C)C)O2 (racemic) [Compound A, N1-d,l-α-tocopheryl carbonyl-5-fluorouracil]
ILS (%) over control ([4]; 500 mg/Kg): 139.1%
Mean survival days ([4]; 500 mg/Kg): 33.0 days
ILS (%) over control ([4]; 1000 mg/Kg): 215.2%
Mean survival days ([4]; 1000 mg/Kg): 43.5 days
ILS (%) over control ([4]; 2000 mg/Kg): 160.9%
Mean survival days ([4]; 2000 mg/Kg): 36.0 days
ILS (%) over control ([4]; 4000 mg/Kg): 182.6%
Mean survival days ([4]; 4000 mg/Kg): 39.0 days
survival effect ([4]; single administration of 1/8 LD50): marked effect
ILS % over controls ([1]; 125 mg/Kg i.p. in MCT): 0%
Mean survival days ([1]; 125 mg/Kg i.p. in MCT): 7.0 days
ILS % over controls ([1]; 250 mg/Kg i.p. in MCT): 14%
Mean survival days ([1]; 250 mg/Kg i.p. in MCT): 8.0 days
ILS % over controls ([1]; 500 mg/Kg i.p. in MCT): 40%
Mean survival days ([1]; 500 mg/Kg i.p. in MCT): 9.8 days
ILS % over controls ([1]; 1000 mg/Kg i.p. in MCT): 73%
Mean survival days ([1]; 1000 mg/Kg i.p. in MCT): 12.1 days
ILS % over controls ([1]; 2000 mg/Kg i.p. in MCT): 79%
Mean survival days ([1]; 2000 mg/Kg i.p. in MCT): 12.5 days
ILS % over controls ([1]; 4000 mg/Kg i.p. in MCT): 93%
Mean survival days ([1]; 4000 mg/Kg i.p. in MCT): 13.5 days
availability ([1]; compared with 5-FU): higher than that of 5-FU
ratio of dose (corresponding ILS) to LD50, compared with 5-FU ([1]; compared with 5-FU): smaller than that of 5-FU
effectiveness ([1]; dose of about 1/8 LD50): effective
Tumor growth (TPCV : T/C %) ([5]; 62 mg/Kg): 77.5%
Tumor growth (TPCV : T/C %) ([5]; 125 mg/Kg): 64.7%
Tumor growth (TPCV : T/C %) ([5]; 250 mg/Kg): 30.4%
Tumor growth (TPCV : T/C %) ([5]; 500 mg/Kg): 3.3%
Tumor growth (TPCV : T/C %) ([5]; 1000 mg/Kg): 0%
Tumor growth (TPCV : T/C %) ([5]; 2000 mg/Kg): 0%
Tumor growth (TPCV : T/C %) ([5]; 4000 mg/Kg): 0%
ED50 [5]: ~170 mg/kg
safety index (LD50 /ED50) [5]: more than 24
toxicity as an antitumor agent ([5]; compared with 5-FU): less toxic
Mean survival days ([2]; 1000 mg/Kg i.p. in MCT, 0 days before tumor implantation): 11.6 days
Mean survival days ([2]; 1000 mg/Kg i.p. in MCT, 1 day before tumor implantation): 13.0 days
Mean survival days ([2]; 1000 mg/Kg i.p. in MCT, 2 days before tumor implantation): 16.4 days
Mean survival days ([2]; 1000 mg/Kg i.p. in MCT, 3 days before tumor implantation): 11.8 days
Mean survival days ([2]; 1000 mg/Kg i.p. in MCT, 4 days before tumor implantation): 11.2 days
Mean survival days ([2]; 1000 mg/Kg i.p. in MCT, 6 days before tumor implantation): 13.5 days
duration of antitumor effects ([2]; from Table 6): 6 days
survival effects ([2]; same day of implantation, or 1-6 days prior to the implantation): exhibits survival effects
LD50 at 504 h [6, 9]: > 4000 mg/kg
LD50 at 504 h [6, 10]: > 4000 mg/kg
LD50 at 504 h ([6]; oral administration): > 4000 mg/kg
acute toxicity [7]: lower acute toxicity than FT-207 and 5-FU
Tumor growth (weight : T/C %) ([3]; 62 mg/Kg oral): 106%
Tumor growth (weight : T/C %) ([3]; 125 mg/Kg oral): 87%
Tumor growth (weight : T/C %) ([3]; 250 mg/Kg oral): 33%
Tumor growth (weight : T/C %) ([3]; 500 mg/Kg oral): 47%
Tumor growth (weight : T/C %) ([3]; 1000 mg/Kg oral): 38%
Tumor growth (weight : T/C %) ([3]; 2000 mg/Kg oral): 36%
minimal effective dose ([3]; S-180, po): ~250 mg/kg
availability ([3]; compared with FT-207 and 5-FU): higher than those of the other two drugs
ratio of the minimum effective dose to toxic dose (LD50) ([3]; oral, S-180 solid tumor): less than 1/16

O=c1[nH]cc(F)c(=O)[nH]1 [Example 5-FU, 5-fluorouracil]
toxicity at the effective dosage [8]: relatively severe toxicity
ILS % over controls ([1]; 15 mg/Kg i.p. in saline): 15%
Mean survival days ([1]; 15 mg/Kg i.p. in saline): 8.1 days
ILS % over controls ([1]; 30 mg/Kg i.p. in saline): 25%
Mean survival days ([1]; 30 mg/Kg i.p. in saline): 8.8 days
ILS % over controls ([1]; 60 mg/Kg i.p. in saline): 38%
Mean survival days ([1]; 60 mg/Kg i.p. in saline): 9.7 days
Tumor growth (TPCV : T/C %) ([5]; 34 mg/Kg): 43.3%
Tumor growth (TPCV : T/C %) ([5]; 68 mg/Kg): 26.4%
Tumor growth (TPCV : T/C %) ([5]; 125 mg/Kg): 4.3%
Tumor growth (TPCV : T/C %) ([5]; 250 mg/Kg): died
Tumor growth (TPCV : T/C %) ([5]; 500 mg/Kg): died
ED50 [5]: ~25 mg/kg
safety index (LD50 /ED50) [5]: about 5
Mean survival days ([2]; 50 mg/Kg i.p. in saline, 1 day before tumor implantation): 9.0 days
Mean survival days ([2]; 50 mg/Kg i.p. in saline, 2 days before tumor implantation): 9.0 days
Mean survival days ([2]; 50 mg/Kg i.p. in saline, 4 days before tumor implantation): 8.8 days
LD50 at 504 h [6, 9]: 150 mg/kg
LD50 at 504 h [6, 10]: 175 mg/kg
LD50 at 504 h ([6]; intravenous administration): 135 mg/kg
LD50 at 504 h ([6]; oral administration): 120 mg/kg
Tumor growth (weight : T/C %) ([3]; 10 mg/Kg oral): 156%
Tumor growth (weight : T/C %) ([3]; 20 mg/Kg oral): 55%
Tumor growth (weight : T/C %) ([3]; 40 mg/Kg oral): 52%
Tumor growth (weight : T/C %) ([3]; 80 mg/Kg oral): 63%
minimal effective dose ([3]; S-180, po): ~20 mg/kg
ratio of the minimum effective dose to toxic dose (LD50) ([3]; oral, S-180 solid tumor): about 1/6
